The assay relates to DU-145. Description: CellTiter-Glo cancer cell growth inhibition, DU-145. The settings on record: Homo sapiens, DU-145, 72 h. Format: cell-based. From the text:
The CellTiter-Glo® Luminescent Cell Viability Assay is a sensitive homogeneous method to determine the number of viable cells in culture, Detection is based on using the luciferase reaction to measure the amount of ATP from viable cells. The amount of ATP in cells correlates with cell viability. Within minutes after a loss of membrane integrity, cells lose the ability to synthesize ATP, and endogenous ATPases destroy any remaining ATP; thus the levels of ATP fall precipitously. The CellTiter-Glo® Reagent does three things upon addition to cells. It lyses cell membranes to release ATP; it inhibits endogenous ATPases, and it provides luciferin, luciferase and other reagents necessary to measure ATP using a bioluminescent reaction. The unique properties of a proprietary stable luciferase. There is a linear relationship (r2=0.99) between the luminescent signal and the number of cells from 0 to 50.000 cells per well.
All assays were performed by Reaction Biology Corporation (Malvern, Pa.) or ChemDiv, Inc. (San Diego, Calif.). […]
Conditions: 37° C., air 95%; HEPA-filtered carbon dioxide (CO2) 5%, humidified atmosphere. • Cells were grown in 175 cm^2 flasks to 80-90% of confluency. • Culture media was aspirated and cell layer was briefly rinsed with Versen solution to remove all traces of serum. • 2 mL of accutase was added to cells. • Flasks were retuned to incubator for 5 min to allow cell detachment. • Add 6.0 mL of complete growth medium. • Single cell suspension was created by gently pipetting. • Cells were counted using a Hematocytometer and a suspension with the desired cell concentration was prepared. […]
Stock solutions ([…]) were diluted with cell culture media to produce 500× serial dilutions and […] of final compound dilutions were added to cells in assay plates to screen a series of 10 doses starting at 100 mM. […] Luminescence intensity was measured for each well using the Tecan M 1000 microplate reader after 5 min of incubation with CellTiter-Glo Reagent. The number of viable cells in culture was determined based on quantitation of the ATP present in each culture well. […]
On the technique in general: Cellular ATP, detected with luciferase, serves as a proxy for viable cell number.

Consider `CN[C@@H]1C[C@H]2O[C@@](C)([C@@H]1OC)n1c3ccccc3c3c4c(c5c6ccccc6n2c5c31)C(=O)NC4` [Staurosporine, reference compound], for which the EC50 came out at 4.8 nM.

Broadly, the EC50 is the concentration that produces a half-maximal response.

These data come from patent US20220274997A1, “PIM KINASE INHIBITOR COMPOSITIONS AND USES THEREOF” (Snap Bio, Inc., priority 2019, published 2022).
